Consider 84 compounds from a melting point compilation (Tetko et al.; mined from patent text by program, amines drawn as free bases though some values may be those of a salt).

A value given as a limit tells only on which side of the number the result lay.

What is called melting point is the temperature of the solid-liquid transition.

`Cc1nc(-c2ccc(C(F)(F)F)cc2)sc1COc1ccc(CC(=O)O)cc1Cl` registered a melting point of 126 to 127 °C.

Take `Clc1ccc(-c2cnc3cc4cn[nH]c4cc3n2)s1`: the melting point is greater than 300 °C.

Compound `CCCCCS(=O)(=O)NC(=O)CCc1cc(OC(C)C)nn1Cc1ccc(Cl)cc1Cl` had a melting point of 126 to 129 °C.

`Cc1nc(C)c(C(=O)c2ccoc2)o1` yielded a melting point of 73.5 to 74.5 °C.

`CCC(=O)NCC1CC1c1c(Br)ccc2nn(C)cc12` (centres undefined) came in with a melting point of 119 to 121 °C.

Compound `COC(=O)CC1(C)CCc2cc(C#N)ccc2C1=O` (centres undefined) returned a melting point of 117 °C.

Take `CCc1nn(C[C@@H]2CCCN2C)c(C(N)=O)c1[N+](=O)[O-]`: the melting point lay within 148 to 150 °C.

Take `C=CCOc1ccccc1N(CC1CO1)S(C)(=O)=O` (centres undefined): the melting point amounted to 78 °C.

Compound `CSc1ccc(N2CCCN(/C(C)=C(/C#N)C(=S)/N=C/N(C)C)CC2)cc1` returned a melting point of 133 to 136 °C.

`COc1ccc(CN2CCC(C(=O)O)(S(=O)(=O)c3ccc(OC)cc3)CC2)cc1` yielded a melting point of 175 °C.

As to `Nc1cc(Cl)c([N+](=O)[O-])cc1OC(=O)c1cccc(C(=O)Oc2cc([N+](=O)[O-])c(Cl)cc2N)c1`, the melting point was 129 to 130 °C.

With `Cc1cccc(C)c1CS(=O)(=O)NCCc1c(CCCc2ccc(C(=O)O)cc2)c2cc(Cl)ccc2n1C(c1ccccc1)c1ccccc1`, the melting point was determined as 193 °C.

Regarding `CC(=O)OC1CSC(Oc2ccc(C)nc2)C(OC(C)=O)C1OC(C)=O` (centres undefined), the melting point came to 130 °C.

For the compound `Cc1cc(-c2cc(C(F)F)n3ncc(C(=O)Nc4cccc(S(=O)(=O)NC5CC5)c4)c3n2)ccc1C(F)(F)F`, the melting point was 199 °C.

`CC(=O)Nc1ccc(C(=O)C2CCN(CC(=O)c3ccc(F)cc3)CC2)cc1` displayed a melting point of 168 to 170 °C.

On to `Cc1nc(NC(=O)c2cnn3c(C(F)F)cc(-c4ccc(C(F)(F)F)cc4)nc23)sc1S(=O)(=O)N1CCN(C)CC1`, for which the melting point was 269 °C.

On to `Nc1c(Cl)ccc2c1C=C(C(=O)O)C(C(F)(F)F)O2` (centres undefined), for which the melting point fell in the range of 208 to 210 °C.

Regarding `COc1cc2c(Nc3ccc(Cl)cc3F)ncnc2cc1OCCCn1ccccc1=O`, the melting point is 216 to 218 °C.

As to `CCc1ccc(S(=O)(=O)n2c(COC(C)(C)C(=O)O)cc3nc(Cl)ccc32)cc1`, the melting point was determined as 172 °C.

Compound `CC(c1oc2ccc(F)cc2c(=O)c1-c1cccc(F)c1)n1nc(-c2cccc(O)c2)c2c(N)ncnc21` (centres undefined) returned a melting point of 193 to 196 °C.

For `CC(=O)OC1CSC(Oc2cncc(-c3cnoc3C)c2)C(OC(C)=O)C1OC(C)=O` (centres undefined), the melting point worked out at 127 °C.

For the compound `O=C(O)COc1ccc(SCc2ccc(OCc3ccc(Cl)cc3Cl)cc2)c2c1CCC2`, the melting point was 149 to 150 °C.

`Cc1ccc(S(=O)(=O)OCC2C(=O)Nc3ccccc3SC2c2ccccc2)cc1` (centres undefined) registered a melting point of 215 °C.

`CC(=O)OCC(=O)C1=CCC2C3CCC4=CC(=O)CCC4(C)C34OC4CC12C` (centres undefined) came in with a melting point of 129 to 130 °C.

As for `CCc1cc(Cc2cc(CC)c(N)c(C)c2Cl)c(Cl)c(C)c1N`, the melting point fell in the range of 115 to 117 °C.

As to `Cc1cc(S(N)(=O)=O)ccc1NC(=O)Cc1ccc(Oc2cc(Cl)cc(C#N)c2)c(Br)c1`, the melting point fell in the range of 215 to 216 °C.

`Cc1ccc(C2C(=O)CC(C)(C)CC2=O)c(C)c1`: the melting point was in the range of 167 to 169 °C.

In the case of `CCCn1cc2c(C3C(=O)Nc4ccc(Br)cc43)nc(NCCCN)nc2n1` (centres undefined), the melting point is greater than 300 °C.

For `CN1CC[C@@H](c2c(O)cc(O)c3c(=O)cc(-c4cc(F)ccc4Br)oc23)[C@@H]1CO`, the melting point lay in the range of 145 to 147 °C.

`CC(=O)OCC1OC(n2ccc3c(C)cccc32)C(OC(C)=O)C(OC(C)=O)C1OC(C)=O` (centres undefined) had a melting point of 156 to 157 °C.

Consider `CC(=O)Nc1nc2c(Oc3cc(-c4ccc(C(F)(F)F)cc4)ncn3)cccc2o1`, for which the melting point turned out to be 205 °C.

Take `CCOC(=O)C(=NOC(C)C)c1csc(NC(c2ccccc2)(c2ccccc2)c2ccccc2)n1`: the melting point worked out at 182 °C.

`CCN1C(=O)c2cccnc2Sc2ccccc21` had a melting point of 148 to 149 °C.

`COc1ccc(-c2cc(=O)n(Cc3ccccc3)nc2-c2ccc(OC)c(F)c2)cc1` gave a melting point of 137 to 138 °C.

The compound `FC(F)(F)C1(c2cc(Cl)cc(Cl)c2)CC(c2ccc(CBr)c(Cl)c2)=NO1` (centres undefined) showed a melting point of 94 to 97 °C.

For `NC(=O)N1CCCC(CC(=O)c2ccc(F)cc2)C1` (centres undefined), the melting point was in the range of 136 to 138 °C.

Take `O=C(O)Cn1c(-c2cccc(Br)c2)nc2cccnc21`: the melting point lay within 247 to 249 °C.

The compound `O=C(O)C=Cc1cc(Cl)ccc1C(=O)O` returned a melting point of 200 to 202 °C.

Regarding `CCOC(=O)c1[nH]c2cccc(C)c2c1Sc1ccc(Cl)cc1`, the melting point fell in the range of 186 to 188 °C.

The compound `COc1ccc(C(=O)c2ccccc2C=O)cc1` registered a melting point of 90 to 91 °C.

Compound `CC(=O)NCc1ccc(CCN2CCC(n3ccc4ccccc43)CC2)cc1` displayed a melting point of 133 to 134 °C.

Compound `COc1cc(Oc2cccc(SC(F)(F)F)c2)nc(C(=O)NC(C)C)c1` showed a melting point of 70 to 76 °C.

As to `C=CCOc1ccc(C(=O)Oc2ccc(O[Si](C)(C)C)cc2)cc1`, the melting point is 87 °C.

Compound `CCC[C@H]1CC[C@H](CCc2ccc(-c3ccc(C#N)cc3F)cc2)CC1` yielded a melting point of 89.4 °C.

In turn, `CC1CCCN(Cc2cccc(OCCCCNc3nnc(N)s3)c2)C1` (centres undefined) had a melting point of 123 to 124 °C.

`Cc1ccc(S(=O)(=O)C(C)(C)C(=O)C2CCCCC2)cc1`: the melting point fell in the range of 123 to 124 °C.

`CCOC(=O)c1cc(CC)sc1Nc1ccc([N+](=O)[O-])cc1[N+](=O)[O-]`: the melting point was in the range of 146 to 148 °C.

As to `CC(=O)Nc1ccc(OCCOc2ncc(Cl)cn2)cc1`, the melting point was 160 °C.

In the case of `O=C(O)Cn1cccc1Sc1ccccc1`, the melting point lay in the range of 101 to 102 °C.

The compound `COC(=O)c1cc2cnc(N3CCC[C@H]3CO)nc2n(Cc2ccc(OC)c(Cl)c2)c1=O` had a melting point of 175 to 176 °C.

For the compound `Cc1c(Cc2ccccc2)[nH]c2ccccc2c1=O`, the melting point was 285 to 287 °C.

For `O=C1c2cccc3cc4ccccc4c(c23)C(=O)N1CCNCCN1C(=O)c2cccc3cc4ccccc4c(c23)C1=O`, the melting point amounted to 271 °C.

As to `O=C(Nc1cc(-c2nc(-c3ccco3)no2)ccc1Cl)Oc1ccccc1`, the melting point fell in the range of 177 to 178 °C.

As for `CCOC(=O)c1cnc2c3c(ccc2c1Cl)C(=O)C(C(C)=O)C=N3` (centres undefined), the melting point was 288 to 290 °C.

`Cn1c(=O)c2conc2n(-c2ccccc2)c1=O` came in with a melting point of 219 to 221 °C.

Take `CCOC(=O)C1(Cc2ccccc2)CC(=O)N(c2ccnc(NC(=O)NCc3ccccn3)c2)C1` (centres undefined): the melting point lay within 158 to 160 °C.

In turn, `CC(C)(C)Oc1cccc(C(=O)Nc2ccc(OCCN3CCOCC3)c3ccccc23)c1` had a melting point of 135 to 136 °C.

`CCc1noc(-c2cn(-c3nccnn3)cn2)n1` registered a melting point of 181 to 182 °C.

With `CCOC(=O)c1cccc(-n2nc(C(=O)OCC)c3csc(N)c3c2=O)c1`, the melting point was 159 to 160 °C.

Take `Cc1ccc(C)c(CNc2c(NC(C)(C)C)c(=O)c2=O)c1`: the melting point is 246 to 247 °C.

The compound `CCOC(C)n1c(CCc2cccc(O)c2)nc(-c2ccccc2)c1-c1ccccc1` (centres undefined) came in with a melting point of 166 to 167 °C.

`Cc1cccc(C)c1NC(=O)/C=C1\SC(C)C(=O)N1C` (centres undefined) gave a melting point of 220 to 222 °C.

With `CS(=O)CCNC(=O)c1cccc(-c2ccc3c(c2)C(c2ccc(Cl)cc2Cl)CC3)c1` (centres undefined), the melting point lay within 112 to 113 °C.

Take `CCOC(=O)c1noc(-c2ccc(Cl)cc2)n1`: the melting point was in the range of 88 to 89 °C.

With `CCOc1ccc(-c2ccc3c(c2)C=C(C(=O)Nc2ccc(CN(C)C4CCOCC4)cc2)CCN3C=O)cc1F`, the melting point is 193 to 196 °C.

The compound `CCCCCCCCCCC1SCCCN1C(=S)Nc1cccc(Cl)c1` (centres undefined) showed a melting point of 63 to 65 °C.

The compound `O=C(O)CCN1CCN(c2ccccc2)CC1` gave a melting point of 213 to 215 °C.

With `Cc1nc(C)c(-c2ccnc(Nc3cccnc3)n2)s1`, the melting point lay within 159 to 162 °C.

`CON=C(C(=O)OC)c1ccccc1CSc1nc2ccccc2s1`: the melting point was 113 to 114 °C.

In the case of `O=C(O)c1ccc([C@H]2CC[C@H](C3CCC4(CC3)OCCO4)CC2)cc1F`, the melting point was 228 °C.

The compound `CNC1=NN(C(=O)C(C)(C)C)C(C)S1` (centres undefined) yielded a melting point of 102 to 103 °C.

The compound `C=Cc1cn(-c2c(Cl)cc(C(F)(F)F)cc2Cl)c2ccccc12` had a melting point of 85 to 87 °C.

On to `CCNC(=O)Nc1ccc2c(=O)n(CCCCN3CC=C(c4ccccc4)CC3)c(=O)[nH]c2c1`, for which the melting point amounted to 220 °C.

On to `COc1cc(COc2nn(-c3ccccc3)cc2C=O)ccc1OCc1nc(-c2cccc(OS(C)(=O)=O)c2)oc1C`, for which the melting point is 146 to 148 °C.

As for `COC(C)=CC(=O)Nc1ccc(Cl)c(Cl)c1`, the melting point amounted to 123 °C.

In the case of `COc1c(NC(=O)Nc2ccc(-c3ccc(CN4CCOCC4)nc3)c3ccccc23)cc(C(C)(C)C)cc1Nc1c(N(C)C)c(=O)c1=O`, the melting point was in the range of 176 to 179 °C.

`Cc1ccc(C(CC(=O)O)c2ccc(F)cc2)cc1` (centres undefined): the melting point was 137 to 139 °C.

As to `O=C(Cc1cccc(Br)c1)Nc1cccc(C(=O)NO)c1`, the melting point lay in the range of 184 to 186 °C.

The compound `CC(C)(C)c1ccc(CCCCC(O)CC2CCCC2)cc1NC(=O)CC1c2ccccc2Oc2ccccc21` (centres undefined) gave a melting point of 132 to 133 °C.

Regarding `O=C(O)[C@@H](CC(=O)N1CCOCC1)NS(=O)(=O)c1ccc(Oc2ccccc2)cc1`, the melting point is 147 to 149 °C.

`O=C(O)Cn1cc(Cc2nc3c(F)c(F)cc(F)c3s2)c2cc(OCc3ccccc3)ccc21` returned a melting point of 165 to 168 °C.

On to `CNC1CCN(c2c(F)cc3c(=O)c(C(=O)O)cn(C4CC4)c3c2C)CC1C` (centres undefined), for which the melting point fell in the range of 233 to 235 °C.

Regarding `O=C(O)Cn1cc(Cc2nc3c(F)c(F)cc(F)c3s2)c2ccc(N3CCOCC3)cc21`, the melting point is 178 to 180 °C.

`CCOC(=O)c1cn(NCC(=O)OC(C)(C)C)c2c(F)c(F)c(F)cc2c1=O` yielded a melting point of 99.5 to 102 °C.
